# According to article PMC8144059 (Drug metabolism and pharmacokinetics, 2021):
# Molecular target: CYP3A4.1 (WT) (Homo sapiens, UniProt P08684)
# Settings: Figure 2, CYP3A4.1, TST 10–500 μM, n=5
# CYP3A4.1 (WT), sequence (P08684 2-503): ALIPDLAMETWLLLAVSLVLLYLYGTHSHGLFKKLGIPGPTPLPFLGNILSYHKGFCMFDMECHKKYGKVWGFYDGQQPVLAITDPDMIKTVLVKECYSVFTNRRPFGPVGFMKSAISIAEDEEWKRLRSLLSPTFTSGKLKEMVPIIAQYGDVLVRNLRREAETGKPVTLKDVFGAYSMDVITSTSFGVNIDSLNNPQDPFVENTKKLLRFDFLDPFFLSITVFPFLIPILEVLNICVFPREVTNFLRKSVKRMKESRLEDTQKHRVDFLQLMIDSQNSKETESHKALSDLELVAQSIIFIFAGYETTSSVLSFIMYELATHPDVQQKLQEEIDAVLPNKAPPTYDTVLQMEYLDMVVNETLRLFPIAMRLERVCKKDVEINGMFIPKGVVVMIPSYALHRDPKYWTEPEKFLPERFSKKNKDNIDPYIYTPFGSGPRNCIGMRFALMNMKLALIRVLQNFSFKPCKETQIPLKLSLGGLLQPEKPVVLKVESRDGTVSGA
smiles,measurement,value
"OC(Cn1cncn1)(Cn1cncn1)c1ccc(F)cc1F [FCZ, fluconazole]",Inhibition of CYP3A4 activity (TST metabolism),inhibited CYP3A4 activity in a concentration-dependent manner
